The values below come from US9770026B2, “Substituted pyrimidine compound and uses thereof” (Shenyang Sinochem Agrochemicals R&D Co., Ltd., priority 2012, dated 2017).

The subject of one data set is rice blast. Kind of data set: microbe, parasite or virus in culture. The note with it: Pyricularia oryzae; for inhibition at 25 ppm: read-out: inhibition rate against rice blast, 25 ppm, in vitro; for inhibition at 8.3 ppm: read-out: inhibition rate against rice blast, 8.3 ppm, in vitro. The format is cell-based.
In another data set the test system is cucumber gray mold. The data set is described as follows: fungicidal activity in vitro (inhibition rate) against cucumber gray mold. The format is cell-based. The note with it: 25 ppm, in vitro; read-out: inhibition rate against cucumber gray mold.
In a further data set the test system is corn rust. Kind of data set: protectant activity in vivo against corn rust. The note with it: Zea mays, 168 h; for pest or weed control at 100 µg/mL: read-out: control effect against corn rust (%), 100 mg/L; for pest or weed control at 400 µg/mL: read-out: control effect against corn rust (%), 400 mg/L; for pest or weed control at 25 µg/mL: read-out: control effect against corn rust (%), 25 mg/L.

In a further data set the test system is wheat powdery mildew. Kind of data set: protectant activity in vivo against wheat powdery mildew. The following applies: Triticum aestivum, 168 h; for pest or weed control at 100 µg/mL: read-out: control effect against wheat powdery mildew (%), 100 mg/L; for pest or weed control at 400 µg/mL: read-out: control effect against wheat powdery mildew (%), 400 mg/L.

For another data set, the system named is cucumber downy mildew. Kind of data set: protectant activity in vivo against cucumber downy mildew. The note with it: Cucumis sativus, 168 h; for pest or weed control at 25 µg/mL: read-out: control effect against cucumber downy mildew (%), 25 mg/L; for pest or weed control at 25 µg/mL / pest or weed control at 50 µg/mL / pest or weed control at 100 µg/mL / pest or weed control at 400 µg/mL: protectant activity; for pest or weed control at 50 µg/mL: read-out: control effect against cucumber downy mildew (%), 50 mg/L; for pest or weed control at 100 µg/mL: read-out: control effect against cucumber downy mildew (%), 100 mg/L; for pest or weed control at 400 µg/mL: read-out: control effect against cucumber downy mildew (%), 400 mg/L.

The test system of another data set is armyworm. The data set is described as follows: bioactivity test against armyworm, airbrush spray. In kind it is in vivo. The following applies: 72 h, read-out: Insecticidal activity against armyworm (%); for pest or weed control at 10 µg/mL: 10 mg/L; for pest or weed control at 100 µg/mL: 100 mg/L; for pest or weed control at 600 µg/mL: 600 mg/L.
For data set [1], the system named is Green peach aphids (Myzus Persicae Sulzer). The data set is described as follows: bioactivity test against green peach aphid, airbrush foliar spray. In kind it is in vivo. The following applies: Myzus persicae, foliar, 48 h, contrastive test, read-out: Insecticidal activity against peach aphid (%); for pest or weed control at 10 µg/mL: 10 mg/L; for pest or weed control at 100 µg/mL: 100 mg/L; for pest or weed control at 600 µg/mL: 600 mg/L. The gist of the method:
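Aphids (15-30 per cabbage leaf disc) on moist filter paper were airbrush-sprayed at 10 psi, 0.5 mL, with compound from acetone:methanol (1:1) diluted in water with 0.1% tween 80. Held at 25±1 C, 60±5% RH; survivors counted after 48 hrs to give death rates.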

The conditions of data set [2]: concentration of 50 ppm; cited from earlier work.
The conditions of data set [3]: concentration of 400 and 100 ppm; cited from earlier work.
For the next data set, the system named is Diamond back moth. The data set is described as follows: insecticidal activity against diamond back moth, airbrush spray. In kind it is in vivo. The note with it: 72 h; for pest or weed control at 600 µg/mL: 600 mg/L. The gist of the method: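 Airbrush leaf-disc spray test: both faces of 2 cm cabbage discs received 0.5 ml of test solution at 0.7 kg/cm^2. Solutions were made in acetone:methanol (1:1) and brought to concentration with 0.1% Tween 80 in water. Ten second-instar larvae per disc, triplicates, were held at 25° C and 60˜70% R.H., with mortality recorded at 72 hrs.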

The subject of a further data set is carmine spider mite. The data set is described as follows: bioactivity test against carmine spider mite, airbrush spray. The following applies: Tetranychus cinnabarinus, 72 h, contrastive test, read-out: Insecticidal activity against carmine spider mite (% ); for pest or weed control at 600 µg/mL: 600 mg/L. The format is in vivo. The gist of the method:
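Broadbean seedlings infested with adult mites were sprayed with compound (acetone/methanol stock diluted in 0.1% Tween 80 water) by airbrush at 0.7 kg/cm^2, 0.5 ml. Three replicates were run. Mortality was scored after 72 hrs.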

`COc1cc(OC)nc(Oc2ccc(CCNc3ncnc(C)c3Cl)cc2)n1` [Compound I-4757] registered a melting point of 119 to 120 °C. Moreover, the inhibition at 25 ppm with rice blast fell in the range of 80 to 99%. For the same compound, the inhibition at 25 ppm with cucumber gray mold was 100%. Besides, the pest or weed control at 25 ppm with corn rust (read-out: protectant activity against corn rust in vivo, 25 ppm) is 80 to 99%. In addition, in the data set on corn rust (read-out: protectant activity against corn rust in vivo, 100 ppm), the pest or weed control at 100 ppm was determined as 100%. Besides, the pest or weed control at 400 ppm in the data set on corn rust (read-out: protectant activity against corn rust in vivo, 400 ppm) is 100%. In addition, the pest or weed control at 400 ppm in the data set on wheat powdery mildew (read-out: protectant activity against wheat powdery mildew in vivo, 400 ppm) is 100%. Moreover, the pest or weed control at 100 ppm in the data set with cucumber downy mildew (read-out: protectant activity against cucumber downy mildew in vivo, 100 ppm) was 100%. Besides, in the data set with cucumber downy mildew (read-out: protectant activity against cucumber downy mildew in vivo, 400 ppm), the pest or weed control at 400 ppm worked out at 100%.

Take `FC(F)(F)c1ccc(Oc2ccc(CCNc3ncnc4ccccc34)cn2)cc1` [CK19, reference compound]: in the data set on rice blast, the inhibition at 8.3 ppm amounted to 0%. In addition, in the data set with armyworm, the pest or weed control at 10 µg/mL was determined as 7%, the pest or weed control at 100 µg/mL turned out to be 25% and the pest or weed control at 600 µg/mL turned out to be 86%. Further, in data set [1], the pest or weed control at 10 µg/mL was 33%, the pest or weed control at 100 µg/mL amounted to 86% and the pest or weed control at 600 µg/mL turned out to be 100%. The insectcidal activity entry in data set [2] was “good insectcidal activity”. The fungicidal activity result in data set [3] is reported as “good fungicidal activity”. For the same compound, in the data set on corn rust (protectant activity), the pest or weed control at 100 µg/mL came out at 0% and the pest or weed control at 400 µg/mL was 70%. Also, in the data set on wheat powdery mildew (protectant activity), the pest or weed control at 100 µg/mL turned out to be 0% and the pest or weed control at 400 µg/mL stood at 50%.

As to `Clc1ccc(Oc2ccc(CCNc3ncnc4ccccc34)cn2)cc1` [CK18, reference compound], in the data set with rice blast, the inhibition at 8.3 ppm was 0%. Also, in the data set with armyworm, the pest or weed control at 10 µg/mL worked out at 14%, the pest or weed control at 100 µg/mL was 43% and the pest or weed control at 600 µg/mL was found to be 100%. Also, the pest or weed control at 2.5 µg/mL in data set [1] (2.5 mg/L) is 0%. For the same compound, in [1] (5 mg/L), the pest or weed control at 5 µg/mL was 7%. In addition, in [1], the pest or weed control at 10 µg/mL was 51%, the pest or weed control at 100 µg/mL was 71% and the pest or weed control at 600 µg/mL was 100%. In addition, the insectcidal activity entry in data set [2] was “good insectcidal activity”. In addition, the fungicidal activity result in data set [3] is recorded as “good fungicidal activity”. In the data set on corn rust (protectant activity), the pest or weed control at 25 µg/mL was 0%, the pest or weed control at 100 µg/mL was 30% and the pest or weed control at 400 µg/mL came out at 80%.

Take `CCc1ncnc(NC(=O)Cc2ccc(Oc3ccc(C(F)(F)F)cn3)cc2)c1Cl` [CK55, reference compound]: the inhibition at 25 ppm with rice blast is below 50%; with cucumber gray mold, 0%. Further, the pest or weed control at 600 µg/mL (in the data set on Diamond back moth; with armyworm; in [1]; with carmine spider mite) was 0% each time. For the same compound, the pest or weed control at 400 µg/mL in the data set on corn rust (protectant activity) worked out at 0%; with wheat powdery mildew (protectant activity), 60%; with cucumber downy mildew it was 100%. For the same compound, the pest or weed control at 25 µg/mL in the data set on cucumber downy mildew was 0%. Moreover, in the data set with cucumber downy mildew, the pest or weed control at 50 µg/mL was 0%. Besides, in the data set on cucumber downy mildew, the pest or weed control at 100 µg/mL stood at 0%.

As to `CCc1ncnc(OC(CC)c2ccc(Oc3ccc(C(F)(F)F)cn3)cc2)c1Cl` (stereo not drawn) [CK15, reference compound], the inhibition at 25 ppm in the data set on rice blast and in the data set with cucumber gray mold was 0% in each case. In addition, the pest or weed control at 10 µg/mL (in the data set on Diamond back moth (10 mg/L); in [1]; in the data set on carmine spider mite (10 mg/L)) was 0% in each case. Further, the pest or weed control at 100 µg/mL in the data set with Diamond back moth (100 mg/L) came to 15%; in data set [1], 40%; in the data set with carmine spider mite (100 mg/L) it was 0%; with corn rust (protectant activity), 85%; in the data set on wheat powdery mildew (protectant activity), 85%; in the data set on cucumber downy mildew it was 15%. Further, the pest or weed control at 600 µg/mL came out at 17% in the data set on Diamond back moth, 0% in the data set on armyworm, 69% in [1] and 59% with carmine spider mite. In addition, the pest or weed control at 6.25 µg/mL in the data set with corn rust (read-out: control effect against corn rust (%), 6.25 mg/L, protectant activity) was 0%; in the data set with wheat powdery mildew (read-out: control effect against wheat powdery mildew (%), 6.25 mg/L, protectant activity), 0%. The pest or weed control at 25 µg/mL came to 30% with corn rust (protectant activity); 10% with wheat powdery mildew (read-out: control effect against wheat powdery mildew (%), 25 mg/L, protectant activity); 0% in the data set with cucumber downy mildew. Besides, the pest or weed control at 400 µg/mL in the data set with corn rust (protectant activity), in the data set with wheat powdery mildew (protectant activity) and with cucumber downy mildew was 95% each time. Further, in the data set with cucumber downy mildew, the pest or weed control at 50 µg/mL was determined as 0%.
